Assay results published in article PMC12373846, “Hemoglobin as a pseudoperoxidase and drug target for oxidative stress-related diseases” (Signal Transduction and Targeted Therapy, 2025).

Tests used:
[1] = system: primary cultured hippocampal astrocytes; assay: oROS-G intracellular H2O2 imaging; assay type: cell-based, mouse; settings: for oROS-G intensity: Fig. 6e
Method: Primary hippocampal astrocytes were obtained from postnatal day 0‒2 (P0‒2) C57BL/6 mice as previously described.[73] The hippocampal tissue was dissected free of meninges, minced, and dissociated into a single-cell suspension by trituration. The cells were grown in Dulbecco’s modified Eagle’s medium supplemented with D-glucose (4500 mg/L), L-glutamine, sodium pyruvate (110 mg/L), 10% heat-inactivated horse serum, 10% heat-inactivated fetal bovine serum, and 1000 U/ml penicillin‒streptomycin. The cells were maintained at 37 °C in a humidified atmosphere containing 5% CO2.
H2O2 specific, highly sensitive, and fast on-and-off kinetics, a genetically encoded oROS-G plasmid kindly provided by Dr. Andre Berndt. oROS-G was cloned under the GFAP104 promoter and delivered into primary cultured hippocampal astrocytes via the NeoN^TM transfection system (Invitrogen). The cells were treated with various concentrations of Aβ (1 to 10 μM) or 6-OHDA (Tocris, 2547; 10 to 50 μM) to induce aberrant H2O2. For subsequent experiments, 5 μM Aβ and 30 μM 6-OHDA were selected on the basis of initial dose‒response studies. KDS12025 (10 μM) and sodium pyruvate (1 mM) were applied as indicated in each experiment. For live-cell imaging, astrocytes were maintained in a humidified chamber at 37 °C with 5% […] during imaging to preserve physiological conditions. Changes in the fluorescence of oROS-G were recorded via an A1 Nikon confocal microscope equipped with a temperature- and humidity-controlled stage. Images were captured every 20 min for up to 40 h (20for the 6-OHDA experiments) via the NIS-Elements software (Nikon, Japan) for time-lapse imaging. The excitation and emission wavelengths for oROS-G fluorescence were set to 485 nm and 538 nm, respectively. Endpoint fluorescence measurements were also collected for KDS12025 dose-dependent experiments. To analyze the fluorescence intensity, individual regions of interest (ROIs) were manually selected for each astrocyte via NIS-Elements software (Nikon, Japan). The fluorescence intensity changes were normalized to the baseline values (ΔF/F0) to quantify the H2O2 dynamics. To determine the EC50 of KDS12025, endpoint fluorescence intensity data from oROS-G experiments were normalized to those of the Aβ+vehicle control group. The normalized data were analyzed via GraphPad Prism software to fit a four-parameter logistic curve, yielding the EC50 value for the H2O2-decomposing activity of KDS12025.

purified mouse RBCs = assay: Isolated red blood cell H2O2 assay; assay type: cell-based; settings: 1 µM H2O2
Method: RBCs were isolated following a modified version of the protocol described by Hanson et al. (2008). Whole blood was collected from male ICR mice (5–6 weeks old) via retro-orbital bleeding under isoflurane anesthesia. Blood was transferred using heparin-coated capillaries into EDTA-coated microcentrifuge tubes and centrifuged at 500 x g for 10 min. Plasma and buffy coat were removed, and the RBC pellet was washed three times with phosphate-buffered saline (PBS) containing 2% fetal bovine serum (FBS) to remove leukocytes and plasma components. The final RBC suspension was adjusted to 5 x 10^3 cells/µL, and cell concentration was verified using an automated hematology analyzer (Horiba Microsemi LC-662).
H2O2 was quantified using the ROS-Glo H2O2 Assay kit (Promega) according to the manufacturer’s protocol. RBCs were dispensed into white 96-well plates at a final volume 70 µL per well. KDS12025 was tested at final concentrations of 0.01, 0.1, and 1 µM, and co-treated with 1 µM H2O2. The ROS-Glo substrate was added simultaneously to all wells. Plates were incubated for 10 min at 37°C. After incubation, ROS-Glo detection reagent was added directly to each well. Plates were then incubated for 20 min at room temperature. Luminescence was measured using a microplate reader (SpectraMax) according to kit settings. Relative luminescence units (RLU) were background-subtracted and normalized to the RBC+ H2O2 only control group. All conditions were tested in triplicate. Results present the combined average of two independent experiments; each performed with the same experimental layout and controls.

HRP = molecular target: T1, HRP (Armoracia rusticana, UniProt P00433); assay: Amplex Red H2O2 assay (HRP-dependent); assay type: biochemical, horseradish; settings: Fig. 1b; read-out: EC50, dose-response in Amplex Red assay
T1 sequence (P00433 31-353): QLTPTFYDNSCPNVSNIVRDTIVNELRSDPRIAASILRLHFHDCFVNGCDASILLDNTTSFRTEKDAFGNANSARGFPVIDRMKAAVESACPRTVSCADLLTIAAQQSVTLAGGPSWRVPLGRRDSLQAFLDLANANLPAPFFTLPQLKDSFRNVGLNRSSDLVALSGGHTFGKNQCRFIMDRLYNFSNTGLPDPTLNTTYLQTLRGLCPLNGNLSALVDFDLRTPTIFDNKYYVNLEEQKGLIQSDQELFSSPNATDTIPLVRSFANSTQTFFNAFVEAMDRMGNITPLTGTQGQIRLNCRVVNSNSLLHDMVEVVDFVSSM
Method: Hb (Sigma‒Aldrich, H7379), H2O2 (Sigma‒Aldrich, H1009), and Amplex Red reagents (Invitrogen, A12222) were obtained for the study. A 4 μM H2O2 solution was prepared in 50 mM sodium phosphate buffer (pH 7.2). Then, 49 μl of this mixture was mixed with 1 μl of the test compound in DMSO or distilled water. The mixture was combined with an assay mixture of Amplex Red reagent (20 mM stock to 0.1 mM) and HRP (200 U/ml stock to 0.2 U/ml) and added to the wells at 50 μl/well. After a 60-min incubation at 37 °C, resorufin production was quantified via a microplate fluorescence reader (SpectraMax iD5, Molecular Devices) at ex/em = 535/580 nm. The H2O2-decomposing activity was estimated via the following equation: (sample fluorescence-blank fluorescence)/(control […]-blank fluorescence) × 100. For the ROS-Glo assay, the H2O2 substrate solution and ROS-Glo detection solution were prepared according to the manufacturer’s instructions. 10 μM H2O2 and drugs were prepared as in the Amplex Red assay, with HRP, Hb, CAT, or GPx added as needed. […] Luminescence was measured via iD5 microplate readers. The H2O2-decomposing activity was estimated via the following equation: (sample luminescence-blank luminescence)/(control luminescence-blank luminescence) × 100. The U/ml was calculated on the basis of the amount of H2O2 reduced by Hb during the reaction, using μg/ml and U/mg.

EC50 (HRP) [µM] | SMILES | oROS-G H2O2 level ([1]; 6-OHDA 30 μM + KDS12025, Fig. 3k) | oROS-G H2O2 level, 40-h imaging ([1]; Aβ 5 μM + KDS12025 10 μM, Fig. 3h) | oROS-G intensity ([1]; Hbβ-shRNA, Aβ 5 μM + 0.1μM) | oROS-G intensity ([1]; Hbβ-shRNA, Aβ 5 μM + 1μM) | oROS-G intensity ([1]; Hbβ-shRNA, Aβ 5 μM + 10μM) | EC50 ([1]; Mus musculus, Astrocyte, Aβ 5 µM-treated astrocytes, oROS-G endpoint, read-out: EC50, reduction of Aβ-induced H2O2) [µM] | oROS-G intensity ([1]; Sc-shRNA, Aβ 5 μM + 0.1μM) | oROS-G intensity ([1]; Sc-shRNA, Aβ 5 μM + 1μM) | oROS-G intensity ([1]; Sc-shRNA, Aβ 5 μM + 10μM) | oROS-G H2O2 level, 40-h imaging ([1]; putrescine 180 μM + KDS12025 10 μM, Fig. 3i) | H2O2 level normalized to RBC+H2O2 only (Fig. S20t) (purified mouse RBCs; 0.01 µM) | H2O2 level normalized to RBC+H2O2 only (Fig. S20t) (purified mouse RBCs; 0.1 µM) | H2O2 level normalized to RBC+H2O2 only (Fig. S20t) (purified mouse RBCs; 1 µM)
– | CNc1ccc(NCCc2ccccc2OC)cc1.Cl [KDS12025, N^1-(2-methoxyphenethyl)-N^4-methylbenzene-1,4-diamine hydrochloride salt] | 123.4±9.7 | 111.8±4.968 | 199.3 | 204.7 | 182.4 | 0.5 | 100.5±13.5 | 112.3±24.1 | 83.4±13.5 | 96.12±6.634 | 37.08±7.98 | 20.61±3.586 | 7.116±4.5
1.8 | O=C(O)c1cc(NCCc2ccc(C(F)(F)F)cc2)ccc1O [HTPEB, 2-hydroxy-5-[2-(4-trifluoromethyl-phenyl)-ethylamino]-benzoic acid, reference compound] | – | – | – | – | – | – | – | – | – | – | – | – | –
